Results: patent US10556898B2, “Indazolyl-1,2,4-thiadiazolamines and related compounds for inhibition of Rho-associated protein kinase and the treatment of disease” (Lycera Corporation, priority 2016, dated 2020)
Where two headings read alike, the source gives them in different places.

Key:
[1] = molecular target: T1, GST-tagged human ROCK2 catalytic domain 1-553 (Homo sapiens, UniProt O75116); test: Isolated Enzyme Assay, ROCK2 (LANCE Ultra ULight-CREBtide FRET); type: biochemical; conditions: 30 μM highest concentration tested, read-out: Results from Isolated Enzyme Assay IC50 (μM) ROCK2
T1 construct: GST-tagged human ROCK2 catalytic domain 1-553 from Carna Biosciences (Cat #01-110); purchased Carna Biosciences 01-110; host or cells: baculovirus expression system
Method: (§1) Exemplary compounds were tested for ability to inhibit Rho-associated protein kinase isoform 1 (ROCK1) and Rho-associated protein kinase isoform 2 (ROCK2). Assay procedures and results are described below.
(§2) Part I—Procedure for Determining ROCK Inhibition Ability of Test Compounds Using an Isolated Enzyme Assay
(§3) Protein constructs were purified from a baculovirus expression system. The peptide substrate was fluorescent LANCE® Ultra ULight-CREBtide: […] (PerkinElmer, # TRF0107-D). Kinase reactions were carried out in a 10 μL volume in 384-well plates: 50 nM ULight-CREBtide substrate, 2 nM constitutively active ROCK1 or ROCK2 kinase, and test compound in DMSO (or DMSO only for controls) were diluted into assay buffer containing 50 mM Tris-HCl (pH=7.5), 10 mM MgCl2, 1 mM EGTA, 0.01% Tween-20, and 2 mM DTT such that the final concentration of DMSO was 0.5%. After a 90 minute incubation at room temperature on a shaker table, the kinase reaction was stopped by addition of 10 mM EDTA, and phosphorylation of the substrate was detected by adding 1 nM LANCE® Ultra Europium-anti-phospho-CREB (ser133) antibody (PerkinElmer, # TRF0200-D) and incubating for 60 minutes on a shaker at room temperature. The fluorescence resonance energy transfer (FRET) signals were read and analyzed on an Envision™ 2103 Multilabel Reader (Perkin Elmer). The concentration of test compound required to inhibit substrate phosphorylation by 50% (the IC50) was calculated by non-linear regression using GraphPad PRIZM.

[2] = molecular target: T2, GST-tagged human ROCK1 catalytic domain 1-477 (Homo sapiens, UniProt Q13464); test: Isolated Enzyme Assay, ROCK1 (LANCE Ultra ULight-CREBtide FRET); type: biochemical; conditions: 30 μM highest concentration tested, read-out: Results from Isolated Enzyme Assay IC50 (μM) ROCK1
T2 construct: human ROCK1 catalytic domain 1-477 from Carna Biosciences (cat #01-109); purchased Carna Biosciences 01-109; host or cells: baculovirus expression system
Method: as §1, §2, §3

T2 sequence (Q13464 1-477): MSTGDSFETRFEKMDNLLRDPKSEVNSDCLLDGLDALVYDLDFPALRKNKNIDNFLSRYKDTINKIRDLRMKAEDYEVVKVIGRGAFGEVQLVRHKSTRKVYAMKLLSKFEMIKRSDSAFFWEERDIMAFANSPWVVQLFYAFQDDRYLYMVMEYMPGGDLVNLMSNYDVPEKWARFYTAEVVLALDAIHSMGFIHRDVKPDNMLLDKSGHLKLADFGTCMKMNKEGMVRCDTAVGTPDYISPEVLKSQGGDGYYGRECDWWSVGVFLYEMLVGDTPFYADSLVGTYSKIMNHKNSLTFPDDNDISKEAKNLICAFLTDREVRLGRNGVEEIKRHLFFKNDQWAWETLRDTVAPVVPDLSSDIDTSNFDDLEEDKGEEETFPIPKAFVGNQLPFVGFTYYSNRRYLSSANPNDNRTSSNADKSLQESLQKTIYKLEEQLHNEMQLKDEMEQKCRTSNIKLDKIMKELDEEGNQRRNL
T1 sequence (O75116 1-553): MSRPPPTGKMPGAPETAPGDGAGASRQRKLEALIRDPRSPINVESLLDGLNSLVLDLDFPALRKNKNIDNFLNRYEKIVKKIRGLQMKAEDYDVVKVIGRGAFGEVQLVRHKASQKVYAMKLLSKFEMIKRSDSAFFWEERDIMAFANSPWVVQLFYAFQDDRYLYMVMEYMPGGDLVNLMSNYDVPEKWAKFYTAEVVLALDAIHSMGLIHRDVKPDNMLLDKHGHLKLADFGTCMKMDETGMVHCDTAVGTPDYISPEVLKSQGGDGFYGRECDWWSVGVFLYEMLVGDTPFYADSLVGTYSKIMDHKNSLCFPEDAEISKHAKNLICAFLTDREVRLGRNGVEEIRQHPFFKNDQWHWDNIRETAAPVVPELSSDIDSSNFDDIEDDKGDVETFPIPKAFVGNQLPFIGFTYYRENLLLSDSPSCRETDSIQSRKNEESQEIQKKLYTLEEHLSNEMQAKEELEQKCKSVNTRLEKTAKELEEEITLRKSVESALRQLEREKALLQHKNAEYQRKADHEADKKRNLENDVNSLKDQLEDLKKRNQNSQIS

Cc1nn(C(F)F)cc1S(=O)(=O)Nc1cccc(-c2nsc(Nc3ccc4[nH]ncc4c3Cl)n2)c1 [IV-98]
IC50 ([1]; isolated enzyme assay): > 30 µM
IC50 ([2]; isolated enzyme assay): > 30 µM

CS(=O)(=O)c1cccc(-c2nsc(Nc3ccc4[nH]ncc4c3Cl)n2)c1 [IV-99]
IC50 ([1]; isolated enzyme assay): > 30 µM
IC50 ([2]; isolated enzyme assay): > 30 µM

Cc1coc(-c2cccc(-c3nsc(Nc4cc5cn[nH]c5cc4F)n3)c2)n1 [IV-93]
IC50 ([1]; isolated enzyme assay): > 30 µM
IC50 ([2]; isolated enzyme assay): > 30 µM

Cn1nccc1C(=O)NC[C@@H]1CCCN1c1nsc(Nc2ccc3[nH]ncc3c2Cl)n1 [IV-110]
IC50 ([1]; isolated enzyme assay): 15 to 30 µM
IC50 ([2]; isolated enzyme assay): > 30 µM

Cn1nccc1C(=O)NC[C@@H]1CCN(c2nsc(Nc3ccc4[nH]ncc4c3Cl)n2)C1 [IV-94]
IC50 ([1]; isolated enzyme assay): > 30 µM
IC50 ([2]; isolated enzyme assay): > 30 µM

Cc1c(S(=O)(=O)Nc2cccc(-c3nsc(Nc4ccc5[nH]ncc5c4Cl)n3)c2)cnn1C(F)F [IV-51]
IC50 ([1]; isolated enzyme assay): 1 to 15 µM
IC50 ([2]; isolated enzyme assay): 15 to 30 µM

CC(C)N1CCN(c2cc(-c3nsc(Nc4ccc5[nH]ncc5c4Cl)n3)cn(C)c2=O)C1=O [IV-3]
IC50 ([1]; isolated enzyme assay): < 1 µM
IC50 ([2]; isolated enzyme assay): 1 to 15 µM

Cc1n[nH]c2ccc(Nc3nc(-c4ccnc(NC(=O)c5ccnn5C)c4)ns3)cc12 [Compound A-5]
IC50 ([1]; isolated enzyme): > 30 µM
IC50 ([2]; isolated enzyme): > 30 µM

Cn1cc(-c2nsc(Nc3ccc4[nH]ncc4c3Cl)n2)cc(N2CCOC2=O)c1=O [IV-4]
IC50 ([1]; isolated enzyme assay): < 1 µM
IC50 ([2]; isolated enzyme assay): > 30 µM

O=C1CCCN1c1cc(-c2nsc(Nc3ccc4[nH]ncc4c3Cl)n2)ccn1 [IV-52]
IC50 ([1]; isolated enzyme assay): < 1 µM
IC50 ([2]; isolated enzyme assay): < 1 µM

Cc1n[nH]c2ccc(Nc3nc(-c4cncc(NC(=O)c5ccnn5C)c4)ns3)cc12 [Compound A-7]
IC50 ([1]; isolated enzyme): > 30 µM
IC50 ([2]; isolated enzyme): > 30 µM

Cc1n[nH]c2ccc(Nc3nc(-c4cccc(NC(=O)c5ccnn5C)c4)ns3)cc12 [Compound A-8]
IC50 ([1]; isolated enzyme): < 1 µM
IC50 ([2]; isolated enzyme): > 30 µM

CN1CCN(C(=O)c2cccc(-c3nsc(Nc4ccc5[nH]ncc5c4Cl)n3)c2)CC1 [IV-85]
IC50 ([1]; isolated enzyme assay): 1 to 15 µM
IC50 ([2]; isolated enzyme assay): 1 to 15 µM

Cn1cc(-c2nsc(Nc3ccc4[nH]ncc4c3Cl)n2)cc(C(=O)O)c1=O [IV-91]
IC50 ([1]; isolated enzyme assay): > 30 µM
IC50 ([2]; isolated enzyme assay): > 30 µM

CS(=O)(=O)Nc1cccc(-c2nsc(Nc3ccc4[nH]ncc4c3Cl)n2)c1 [IV-16]
IC50 ([1]; isolated enzyme assay): < 1 µM
IC50 ([2]; isolated enzyme assay): 1 to 15 µM

O=C(Nc1cncc(-c2nsc(Nc3ccc4[nH]ncc4c3Cl)n2)c1)c1cncs1 [IV-18]
IC50 ([1]; isolated enzyme assay): < 1 µM
IC50 ([2]; isolated enzyme assay): > 30 µM

O=C(Nc1cncc(-c2nsc(Nc3ccc4[nH]ncc4c3Cl)n2)c1)c1cocn1 [IV-36]
IC50 ([1]; isolated enzyme assay): < 1 µM
IC50 ([2]; isolated enzyme assay): > 30 µM

O=C(Nc1cccc(-c2nsc(Nc3ccc4[nH]ncc4c3)n2)c1)c1c[nH]cn1 [Compound A-1]
IC50 ([1]; isolated enzyme): < 1 µM
IC50 ([2]; isolated enzyme): 1 to 15 µM

Cc1nc(S(=O)(=O)Nc2cccc(-c3nsc(Nc4ccc5[nH]ncc5c4Cl)n3)c2)cn1C [IV-41]
IC50 ([1]; isolated enzyme assay): 1 to 15 µM
IC50 ([2]; isolated enzyme assay): < 1 µM

N#Cc1c(Nc2nc(-c3cccc([N+](=O)[O-])c3)ns2)ccc2[nH]ncc12 [IV-100]
IC50 ([1]; isolated enzyme assay): > 30 µM
IC50 ([2]; isolated enzyme assay): > 30 µM

Cn1cc(-c2nsc(Nc3ccc4[nH]ncc4c3Cl)n2)cc(N2CCCC2=O)c1=O [IV-11]
IC50 ([1]; isolated enzyme assay): 1 to 15 µM
IC50 ([2]; isolated enzyme assay): > 30 µM

CP(C)(=O)c1cccc(-c2nsc(Nc3ccc4[nH]ncc4c3Cl)n2)c1 [IV-102]
IC50 ([1]; isolated enzyme assay): > 30 µM
IC50 ([2]; isolated enzyme assay): > 30 µM

Cc1cc(NC(=O)c2cc(C)nn2C)cc(-c2nsc(Nc3ccc4[nH]ncc4c3Cl)n2)n1 [IV-37]
IC50 ([1]; isolated enzyme assay): < 1 µM
IC50 ([2]; isolated enzyme assay): > 30 µM

O=C(Cn1cc(Cl)cn1)Nc1cccc(-c2nsc(Nc3ccc4[nH]ncc4c3Cl)n2)c1 [IV-104]
IC50 ([1]; isolated enzyme assay): > 30 µM
IC50 ([2]; isolated enzyme assay): > 30 µM

Cc1cc(=O)n(-c2cc(-c3nsc(Nc4ccc5[nH]ncc5c4Cl)n3)ccn2)n1C [IV-23]
IC50 ([1]; isolated enzyme assay): < 1 µM
IC50 ([2]; isolated enzyme assay): < 1 µM

O=c1c2ccccc2ncn1-c1cccc(-c2nsc(Nc3ccc4[nH]ncc4c3Cl)n2)c1 [IV-95]
IC50 ([1]; isolated enzyme assay): > 30 µM
IC50 ([2]; isolated enzyme assay): > 30 µM

Cn1nccc1C(=O)Nc1cncc(-c2nsc(Nc3ccc4[nH]ncc4c3Cl)n2)c1 [Compound A-6]
IC50 ([1]; isolated enzyme): < 1 µM
IC50 ([2]; isolated enzyme): > 30 µM

Cn1cc(-c2nsc(Nc3ccc4[nH]ncc4c3Cl)n2)cc(NC(=O)c2cnccn2)c1=O [IV-1]
IC50 ([1]; isolated enzyme assay): < 1 µM
IC50 ([2]; isolated enzyme assay): > 30 µM
